Assay: Electrophysiology Assay: Patch clamp electrophysiology was used to assess the efficacy and selectivity of sodium channel blockers in dorsal root ganglion neurons. Rat neurons were isolated from the dorsal root ganglions and maintained in culture for 2 to 10 days in the presence of NGF (50 ng/ml) (culture media consisted of NeurobasalA supplemented with B27, glutamine and antibiotics). Small diameter neurons (nociceptors, 8-12 μm in diameter) were visually identified and probed with fine tip glass electrodes connected to an amplifier (Axon Instruments). The “voltage clamp” mode was used to assess the compound's IC50 holding the cells at −60 mV. In addition, the “current clamp” mode was employed to test the efficacy of the compounds in blocking action potential generation in response to current injections.

| SMILES | IC50 [nM] |
| --- | --- |
| COc1cc(NC(=O)c2ccc(C(F)(F)F)cc2F)ccn1 | 44 |
| Cc1cc(F)ccc1Oc1cc(C(F)(F)F)ccc1C(=O)Nc1ccn(CCl)c(=O)c1 | 28 |
